Patent US7825104B2, “Methods and compositions for treating fungal infections” (Ramot at Tel Aviv University Ltd., priority 2001, dated 2010)

Tests used:
[1] = tested on: Trichophyton rubrum; assay: in vitro fungicidal/fungistatic test on T. rubrum cultures; format: cell-based; details: concentration range of 5-10 mg/ml tested
Procedure: An in vitro test was designed for testing the fungicidal or fungistatic activity of PBA and its water-soluble derivatives. Cultures of T. rubrum were grown on 100 microliters SDB agar in a standard 96 well plate. Following an initial growth period of about 24 hours, each well was treated with 50-100 microliters of the reagent tested. Following an appropriate incubation period with or without washing, residual viability was estimated from comparison with appropriate controls, followed by secondary verification of viability tests by transfer of a part of the treated culture into a fresh well for optional recovery and growth. […] The photograph was taken four days after treatment.

[2] = tested on: Candida parapsilosis; assay: in vitro fungicidal/inhibitory effect on Candida parapsilosis; format: cell-based
[3] = tested on: Bacilus megaterium; assay: in vitro effect on Bacillus megaterium (control, Cyt P-450 containing bacteria); format: cell-based; details: solution of about 5-10 mg/ml
[4] = ORL-RAT; cited from earlier work
[5] = cited from earlier work

With OB(O)c1ccccc1 [PBA, Phenyl boronic acid] as the compound, how does the “effect on T. rubrum” value [1] read?
The value was “fungicidal”.

And the “effect on C. parapsylosis” value ([2]; 5 mg/ml)?
The value was “fungistatic”.

What about the “effect on C. parapsylosis” value ([2]; 10 mg/ml) of the same compound?
Its value is “fungicidal”.

And the “activity against Bacillus megaterium” value [3]?
The value was “antibiotic activity”.

What about the LD50 [4] of the same compound?
The LD50 was 740 mg/kg.

And the solubility in water [5]?
Its solubility in water is “reasonably soluble in water”.
